Measurements published in patent US11530222B2, “Substituted pyrrolopyrimidine and pyrazolopyrimidine as Bruton's tyrosine kinase (BTK) degraders” (ACCUTAR BIOTECHNOLOGY INC., priority 2021, dated 2022).
pIC50: −log10 of the molar value.

Tests used:
Type in all cases: cell-based
[1] = biological target: T1, BTK (Homo sapiens, UniProt Q06187); assay: BTK degradative activity in a RAMOS cell line (Western blot); details: 6 hours after administration, read-out: RAMOS BTK Degradation DC50
T1 construct: BTK Degradative Activity of Exemplary Compounds of the Present Disclosure in a RAMOS Cell Line; host or cells: RAMOS
T1 sequence (Q06187 whole entry): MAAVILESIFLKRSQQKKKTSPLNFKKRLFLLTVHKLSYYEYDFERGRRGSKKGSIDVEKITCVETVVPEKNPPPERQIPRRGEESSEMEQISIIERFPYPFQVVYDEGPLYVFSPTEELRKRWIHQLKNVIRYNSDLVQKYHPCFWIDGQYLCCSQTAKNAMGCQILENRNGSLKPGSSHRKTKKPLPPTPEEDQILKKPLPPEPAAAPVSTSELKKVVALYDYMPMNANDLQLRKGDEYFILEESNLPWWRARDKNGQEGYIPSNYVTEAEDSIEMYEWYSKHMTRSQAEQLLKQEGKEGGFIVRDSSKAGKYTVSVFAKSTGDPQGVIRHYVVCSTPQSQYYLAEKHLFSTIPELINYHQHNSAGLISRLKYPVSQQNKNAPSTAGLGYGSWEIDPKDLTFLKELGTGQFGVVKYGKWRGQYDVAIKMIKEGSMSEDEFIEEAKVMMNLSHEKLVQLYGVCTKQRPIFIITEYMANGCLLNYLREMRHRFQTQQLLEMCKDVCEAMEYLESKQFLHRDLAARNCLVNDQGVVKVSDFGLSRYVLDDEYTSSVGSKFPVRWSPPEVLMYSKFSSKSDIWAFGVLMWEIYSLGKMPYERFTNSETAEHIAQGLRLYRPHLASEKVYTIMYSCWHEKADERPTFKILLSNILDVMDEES
Summary of the method: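 Ramos cells in RPMI with 10% FBS were treated with compound in DMSO at various concentrations for 6 h at 37 °C. BTK was measured by Western blot against GAPDH with infrared fluorescent detection and band quantification. DC50 is the concentration at which 50% of BTK is degraded.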

[2] = tested on: REC-1 cells; assay: Growth inhibitory activity in BTK-dependent REC-1 cell line (CellTiter-Glo); details: Homo sapiens, Rec1, 144 h, 6 days after administration, read-out: REC1 Cellular Grwoth Inhibition IC50
Method: (§1) REC-1 (ATCC) and REC-1 BTK^C481S cells were plated in 96-well plates at 8,000 cells/well in 90 ul of RPMI growth medium containing 10% heat-inactivated FBS and 1× Penicillin Streptomycin, and then incubated at 37° C. overnight. The following day, the test compound was administered to the cells by using 10× compound stock solution prepared in growth medium at various concentrations. After administration of the compound, cells were then incubated at 37° C. for 6 days. Before CellTiter-Glo assay, the plates were equilibrated at room temperature for approximately 10 minutes. 100 ul of CellTiter-Glo® Reagent (Promega) was added to each well. The plates were then incubated at room temperature for 10 minutes and luminescence was recorded by EnSpire plate reader (PerkinElmer).
(§2) The GI50 values (i.e., the concentration of test compound at which 50% of cell growth are inhibited) were calculated. A designation of “A” corresponds to a […] value less than 20 nM. A designation of “B” corresponds to a […] value greater than or equal to 20 nM and less than 200 nM. A designation of “C” corresponds to a […] value greater than or equal to 200 nM.

[3] = tested on: REC-1 BTK^C481S cells; assay: Growth inhibitory activity in REC-1 BTK^C481S cell line (CellTiter-Glo); details: Homo sapiens, Rec1, 144 h, 6 days after administration, read-out: REC1 BTK^C481S Cellular Grwoth Inhibition IC50
Method: The BTK gene in REC-1 cell line (ATCC) was edited by the CRISPR-Cas9 technology to create a C to S point mutation at residue 481 of BTK protein. For gene editing, first, gRNA complex was prepared with Alt-R CRISPR-Cas9 tracrRNA and crRNA BTK^C481S (5′-[…]-3′) (IDT-Integrated DNA Technologies), and then BTK^C481S ribonucleoprotein (RNP) complex was prepared with gRNA complex and Alt-R S.p. Cas9 Nuclease V3 (IDT-Integrated DNA Technologies). Next, 1×10^5 REC-1 cells were electroporated with BTK^C481S RNP complex, Alt-R Cas9 Electroporation Enhancer and BTKC481S Ultramer DNA Oligo (5′-[…] […]-3′) (IDT-Integrated DNA Technologies) using Neon Transfection System (Thermo Fisher) under the condition of 1400 V, 10 ms, 3 pulses. Cells were then plated in a 96-well plate for 10 days and selected with 10 nM Ibrutinib for 5 passages. C481S mutation of BTK was further validated by Sanger Sequencing using gDNA extracted from these cells.
as §1, §2

DC50 [1] [nM] | Compound | pIC50 [2] | pIC50 [3]
< 10 | COc1ccc(F)cc1C(=O)NCc1ccc(-c2nn(C3CN(C(=O)c4ccc(CN5CCN(c6ccc7c(c6)CN([C@H]6CCC(=O)NC6=O)C7=O)CC5)cc4)C3)c3ncnc(N)c23)cc1 [Compound 62, (S)—N-(4-(4-amino-1-(1-(4-((4-(2-(2,6-dioxopiperidin-3-yl)-1-oxoisoindolin-5-yl)piperazin-1-yl)methyl)benzoyl)azetidin-3-yl)-1H-pyrazolo[3,4-d]pyrimidin-3-yl)benzyl)-5-fluoro-2-methoxybenzamide] | 6.70 to 7.70 | –
10 to 100 | COc1ccc(F)cc1C(=O)NCc1ccc(-c2nn(-c3ccc(N4CCC(CN5CCN(c6ccc7c(c6)C(=O)N(C6CCC(=O)NC6=O)C7=O)CC5)CC4)c(F)c3)c3ncnc(N)c23)cc1 (stereo not shown) [Compound 50, N-(4-(4-amino-1-(4-(4-((4-(2-(2,6-dioxopiperidin-3-yl)-1,3-dioxoisoindolin-5-yl)piperazin-1-yl)methyl)piperidin-1-yl)-3-fluorophenyl)-1H-pyrazolo[3,4-d]pyrimidin-3-yl)benzyl)-5-fluoro-2-methoxybenzamide] | > 7.70 | –
< 10 | COc1ccc(F)cc1C(=O)NCc1ccc(-c2nn(-c3ccc(N4CCC(CN5CCN(c6cc7c(cc6F)C(=O)N([C@H]6CCC(=O)NC6=O)C7)CC5)CC4)c(F)c3)c3ncnc(N)c23)cc1 [Compound 51, (S)—N-(4-(4-amino-1-(4-(4-((4-(2-(2,6-dioxopiperidin-3-yl)-6-fluoro-1-oxoisoindolin-5-yl)piperazin-1-yl)methyl)piperidin-1-yl)-3-fluorophenyl)-1H-pyrazolo[3,4-d]pyrimidin-3-yl)benzyl)-5-fluoro-2-methoxybenzamide] | > 7.70 | –
< 10 | COc1ccc(F)cc1C(=O)NCc1ccc(-c2nn(C3CN(c4ccc(CN5CCN(c6ccc7c(c6)CN([C@H]6CCC(=O)NC6=O)C7=O)CC5)cn4)C3)c3ncnc(N)c23)cc1 [Compound 54, (S)—N-(4-(4-amino-1-(1-(5-((4-(2-(2,6-dioxopiperidin-3-yl)-1-oxoisoindolin-5-yl)piperazin-1-yl)methyl)pyridin-2-yl)azetidin-3-yl)-1H-pyrazolo[3,4-d]pyrimidin-3-yl)benzyl)-5-fluoro-2-methoxybenzamide] | > 7.70 | –
< 10 | COc1ccc(F)cc1C(=O)NCc1ccc(-c2nn(-c3ccc(N4CC[C@@H](CN5CCN(c6ccc7c(c6)CN([C@H]6CCC(=O)NC6=O)C7=O)CC5)C4)c(F)c3)c3ncnc(N)c23)cc1 [Compound 96, N-(4-(4-amino-1-(4-((S)-3-((4-(2-((S)-2,6-dioxopiperidin-3-yl)-1-oxoisoindolin-5-yl)piperazin-1-yl)methyl)pyrrolidin-1-yl)-3-fluorophenyl)-1H-pyrazolo[3,4-d]pyrimidin-3-yl)benzyl)-5-fluoro-2-methoxybenzamide] | > 7.70 | > 7.70
< 10 | COc1ccc(F)cc1C(=O)NCc1ccc(-c2nn(C3CCN(C(=O)c4ccc(CN5CCN(c6ccc7c(c6)CN([C@H]6CCC(=O)NC6=O)C7=O)CC5)cc4)C3)c3ncnc(N)c23)cc1 (stereo partly shown) [Compound 63] | 6.70 to 7.70 | –
– | COc1ccc(F)cc1C(=O)NCc1ccc(-c2nn(-c3ccc(N4CCC(CN5CCN(c6ccc7c(c6)CN([C@H]6CCC(=O)NC6=O)C7=O)CC5)CC4)nc3)c3ncnc(N)c23)cc1 [Compound 59, (S)—N-(4-(4-amino-1-(6-(4-((4-(2-(2,6-dioxopiperidin-3-yl)-1-oxoisoindolin-5-yl)piperazin-1-yl)methyl)piperidin-1-yl)pyridin-3-yl)-1H-pyrazolo[3,4-d]pyrimidin-3-yl)benzyl)-5-fluoro-2-methoxybenzamide] | > 7.70 | > 7.70
< 10 | COc1ccc(F)cc1C(=O)NCc1ccc(-c2nn(C3CN(c4ccc(CN5CCN(c6ccc7c(c6)CN([C@H]6CCC(=O)NC6=O)C7=O)CC5)cc4)C3)c3ncnc(N)c23)cc1 [Compound 61, (S)—N-(4-(4-amino-1-(1-(4-((4-(2-(2,6-dioxopiperidin-3-yl)-1-oxoisoindolin-5-yl)piperazin-1-yl)methyl)phenyl)azetidin-3-yl)-1H-pyrazolo[3,4-d]pyrimidin-3-yl)benzyl)-5-fluoro-2-methoxybenzamide] | > 7.70 | –
≥ 100 | COc1ccc(F)cc1C(=O)NCc1ccc(-c2nn(C3CCN(c4ccc(CN5CCN(c6ccc7c(c6)CN([C@H]6CCC(=O)NC6=O)C7=O)CC5)nc4)C3)c3ncnc(N)c23)cc1 (stereo partly drawn) [Compound 58, N-(4-(4-amino-1-(1-(6-((4-(2-((S)-2,6-dioxopiperidin-3-yl)-1-oxoisoindolin-5-yl)piperazin-1-yl)methyl)pyridin-3-yl)pyrrolidin-3-yl)-1H-pyrazolo[3,4-d]pyrimidin-3-yl)benzyl)-5-fluoro-2-methoxybenzamide] | ≤ 6.70 | –
< 10 | COc1ccc(F)cc1C(=O)NCc1ccc(-c2nn(C3CCN(c4ccc(CN5CCN(c6ccc7c(c6)CN([C@H]6CCC(=O)NC6=O)C7=O)CC5)cc4)CC3)c3ncnc(N)c23)cc1 [Compound 53, (S)—N-(4-(4-amino-1-(1-(4-((4-(2-(2,6-dioxopiperidin-3-yl)-1-oxoisoindolin-5-yl)piperazin-1-yl)methyl)phenyl)piperidin-4-yl)-1H-pyrazolo[3,4-d]pyrimidin-3-yl)benzyl)-5-fluoro-2-methoxybenzamide] | > 7.70 | –
< 10 | COc1ccc(F)cc1C(=O)NCc1ccc(-c2nn(C3CCN(C(=O)CCCCCN4CCN(c5ccc6c(c5)CN([C@H]5CCC(=O)NC5=O)C6=O)CC4)C3)c3ncnc(N)c23)cc1 (stereo partly drawn) [Compound 64, N-(4-(4-amino-1-(1-(6-(4-(2-((S)-2,6-dioxopiperidin-3-yl)-1-oxoisoindolin-5-yl)piperazin-1-yl)hexanoyl)pyrrolidin-3-yl)-1H-pyrazolo[3,4-d]pyrimidin-3-yl)benzyl)-5-fluoro-2-methoxybenzamide] | 6.70 to 7.70 | –
≥ 100 | COc1ccc(F)cc1C(=O)NCc1ccc(-c2nn(C3CCN(c4ccc(CN5CCN(c6ccc7c(c6)CN([C@H]6CCC(=O)NC6=O)C7=O)CC5)cc4)C3)c3ncnc(N)c23)cc1 (stereo partly drawn) [Compound 60, N-(4-(4-amino-1-(1-(4-((4-(2-((S)-2,6-dioxopiperidin-3-yl)-1-oxoisoindolin-5-yl)piperazin-1-yl)methyl)phenyl)pyrrolidin-3-yl)-1H-pyrazolo[3,4-d]pyrimidin-3-yl)benzyl)-5-fluoro-2-methoxybenzamide] | 6.70 to 7.70 | –
< 10 | COc1ccc(F)cc1C(=O)NCc1ccc(-c2nn(C3CCN(c4ccc(CN5CCN(c6ccc7c(c6)CN([C@H]6CCC(=O)NC6=O)C7=O)CC5)cn4)C3)c3ncnc(N)c23)cc1 (stereo partly drawn) [Compound 92, N-(4-(4-amino-1-(1-(5-((4-(2-((S)-2,6-dioxopiperidin-3-yl)-1-oxoisoindolin-5-yl)piperazin-1-yl)methyl)pyridin-2-yl)pyrrolidin-3-yl)-1H-pyrazolo[3,4-d]pyrimidin-3-yl)benzyl)-5-fluoro-2-methoxybenzamide] | 6.70 to 7.70 | –
< 10 | COc1ccc(F)cc1C(=O)NCc1ccc(-c2nn(C3CCN(c4ccc(CN5CCN(c6ccc7c(c6)CN([C@H]6CCC(=O)NC6=O)C7=O)CC5)cn4)CC3)c3ncnc(N)c23)cc1 [Compound 52, (S)—N-(4-(4-amino-1-(1-(5-((4-(2-(2,6-dioxopiperidin-3-yl)-1-oxoisoindolin-5-yl)piperazin-1-yl)methyl)pyridin-2-yl)piperidin-4-yl)-1H-pyrazolo[3,4-d]pyrimidin-3-yl)benzyl)-5-fluoro-2-methoxybenzamide] | > 7.70 | –
10 to 100 | COc1ccc(F)cc1C(=O)NCc1ccc(-c2nn(C3CCN(C(=O)CCCCN4CCN(c5ccc6c(c5)CN([C@H]5CCC(=O)NC5=O)C6=O)CC4)C3)c3ncnc(N)c23)cc1 (stereo partly drawn) [Compound 55, N-(4-(4-amino-1-(1-(5-(4-(2-((S)-2,6-dioxopiperidin-3-yl)-1-oxoisoindolin-5-yl)piperazin-1-yl)pentanoyl)pyrrolidin-3-yl)-1H-pyrazolo[3,4-d]pyrimidin-3-yl)benzyl)-5-fluoro-2-methoxybenzamide] | ≤ 6.70 | –
